Laboratory results: patent US10448639B2, “Fungicidal pyrazoles” (FMC CORPORATION, priority 2009, dated 2019)

Key:
[1] = tested on: Erysiphe graminis f sp. tritici; assay: Test J: wheat powdery mildew, preventive spray on wheat seedlings, visual disease rating; settings: wheat powdery mildew, preventive spray; 100 = 100% disease control, 0 = no control
Alternaria solani = assay: Test C: tomato early blight, preventive spray on tomato seedlings, visual disease rating; settings: tomato early blight, preventive spray; 100 = 100% disease control, 0 = no control
[2] = tested on: Puccinia recondita f. sp. tritici; assay: Test H: wheat leaf rust, curative spray on inoculated wheat seedlings, visual disease rating; settings: wheat leaf rust, curative spray; 100 = 100% disease control, 0 = no control
[3] = tested on: Puccinia recondita f. sp. tritici; assay: Test I: wheat leaf rust, preventive spray on wheat seedlings, visual disease rating; settings: wheat leaf rust, preventive spray; 100 = 100% disease control, 0 = no control
Septoria tritici = assay: Test G: wheat leaf blotch, preventive spray on wheat seedlings, visual disease rating; settings: wheat leaf blotch, preventive spray; 100 = 100% disease control, 0 = no control
Septoria nodorum = assay: Test F: Septoria glume blotch, preventive spray on wheat seedlings, visual disease rating; settings: Septoria glume blotch on wheat, preventive spray; 100 = 100% disease control, 0 = no control
Botrytis cinerea = assay: Test B: tomato Botrytis, preventive spray on tomato seedlings, visual disease rating; settings: tomato Botrytis, preventive spray; 100 = 100% disease control, 0 = no control

Row | Compound | Test J rating (% disease control) [1] | Test C rating (% disease control) (Alternaria solani) | Test H rating (% disease control) [2] | Test I rating (% disease control) [3] | Test G rating (% disease control) (Septoria tritici) | Test F rating (% disease control) (Septoria nodorum) | Test B rating (% disease control) (Botrytis cinerea)
1 | CCOC(=O)Cn1nc(C)c(-c2c(F)cc(F)cc2F)c1Oc1c(F)cc([N+](=O)[O-])cc1F [compound 65] | 0% | 0% | 0% | 58% | 1% | 0% | 0%
2 | COc1cc(F)c(-c2c(C)nn(C)c2Nc2ccc(C)cn2)c(F)c1 [compound 66] | 99% | 99% | 6% | 100% | 100% | 0% | 100%
3 | Cc1nn(C)c(Nc2ccc(C#N)cn2)c1-c1ccc(F)cc1Cl [compound 67] | 86% | 0% | 24% | 95% | 99% | 0% | 95%
4 | Cc1nn(CC(=O)O)c(Oc2c(F)cc([N+](=O)[O-])cc2F)c1-c1c(F)cc(F)cc1F [compound 68] | 0% | 0% | 6% | 0% | 0% | 0% | 0%
5 | CCn1nc(C)c(-c2ccc(Cl)cc2Cl)c1Nc1ccc(F)cc1F [compound 70] | 98% | 0% | 41% | 85% | 99% | 0% | 99%
6 | CC(=O)Nc1ccc(Oc2c(-c3ccc(F)cc3Cl)c(C)nn2C)c(F)c1 [compound 71] | 67% | 0% | 0% | 91% | 96% | 0% | 93%
7 | COc1ccc(Nc2c(-c3ccc(F)cc3F)c(C)nn2C)cc1OC [compound 72] | 0% | 0% | 59% | 0% | 0% | 0% | 0%
8 | Cc1nn(C)c(Nc2ncc(Cl)cc2Cl)c1-c1ccc(F)cc1Cl [compound 73] | 99% | 99% | 88% | 100% | 100% | 64% | 100%
9 | COc1ccc(Nc2c(-c3ccc(Cl)cc3Cl)c(C)nn2C)cc1OC [compound 74] | 0% | 0% | 4% | 0% | 25% | 0% | 0%
10 | Cc1nn(C)c(Nc2c(F)cc(F)cc2F)c1-c1ccc(Cl)cc1Cl [compound 75] | 97% | 98% | 95% | 99% | 99% | 98% | 100%
11 | COc1cc(F)c(-c2c(C)nn(C)c2Oc2c(F)cc(N)cc2F)c(F)c1 [compound 77] | 0% | 0% | 6% | 97% | 95% | 0% | 99%
12 | COc1cc(F)c(Nc2c(-c3c(F)cc(F)cc3F)c(C)nn2C)c(F)c1 [compound 78] | 91% | 82% | 0% | 89% | 98% | 0% | 99%
13 | Cc1ccc(-c2c(C)nn(C)c2Nc2c(F)cc(F)cc2F)cc1 [compound 79] | 0% | 0% | 0% | 55% | 99% | 0% | 99%
14 | COc1cc(F)c(Nc2c(-c3ccc(C)cc3)c(C)nn2C)c(F)c1 [compound 80] | 89% | 0% | 18% | 86% | 99% | 0% | 100%
15 | COc1cc(F)c(-c2c(C)nn(C)c2Nc2cc(Cl)c(OC)cc2OC)c(F)c1 [compound 81] | 0% | 0% | 0% | 27% | 0% | 0% | 97%
16 | COc1cc(F)c(-c2c(C)nn(C)c2Nc2c(F)cc(C#N)cc2F)c(F)c1 [compound 82] | 13% | 100% | 0% | 68% | 99% | 40% | 100%
17 | COc1cc(F)c(Nc2c(-c3c(F)cc(OC)cc3F)c(C)nn2C)c(F)c1 [compound 83] | 94% | 100% | 99% | 96% | 99% | 89% | 100%
18 | COc1cc(F)c(-c2c(C)nn(C)c2Oc2c(F)cccc2F)c(F)c1 [compound 84] | 99% | 100% | 98% | 100% | 100% | 78% | 100%
19 | COc1cc(OC)cc(-c2c(C)nn(C)c2Oc2c(F)cc(C#N)cc2F)c1 [compound 85] | 0% | 0% | 0% | 19% | 17% | 0% | 0%
20 | Cc1nn(C)c(Oc2c(F)cc(C#N)cc2F)c1-c1ccc(Cl)nc1 [compound 86] | 0% | 0% | 0% | 0% | 48% | 0% | 0%
21 | COc1cc(F)c(-c2c(C)nn(C)c2Nc2ccc(F)cc2C)c(F)c1 [compound 88] | 100% | 100% | 95% | 99% | 98% | 99% | 100%
22 | COc1cc(F)ccc1-c1c(C)nn(C)c1Oc1c(F)cc(C#N)cc1F [compound 89] | 97% | 0% | 0% | 0% | 99% | 0% | 99%
23 | COc1cc(F)c(-c2c(C)nn(C)c2Oc2c(F)cc(Br)cc2F)c(F)c1 [compound 90] | 100% | 95% | 0% | 98% | 100% | 84% | 99%
24 | Cc1nn(C)c(Nc2c(F)cc(C#N)cc2F)c1-c1c(F)cc(F)cc1F [compound 92] | 100% | 100% | 41% | 99% | 100% | 99% | 100%
25 | COc1ccc(Nc2c(-c3c(F)cc(F)cc3F)c(C)nn2C)cc1OC [compound 93] | 0% | 0% | 0% | 9% | 77% | 0% | 41%
